Data reported in article PMC11611271, “Rapid prediction of key residues for foldability by machine learning model enables the design of highly functional libraries with hyperstable constrained peptide scaffolds” (PLOS Computational Biology, 2024).
Where a SMILES comes first, the peptide text is derived from it. Bridges are numbered along the chain shown (N, C = ends).

Test system: VEGF
Experiment: phage spot ELISA on VEGF
Format: binding
Conditions: for S/N: phage spot ELISA signal/noise; for S/N / ELISA: S3 Table sheet VEGF; for ELISA: phage spot ELISA signal
Source text: To determine the performance of the libraries for ligand discovery we chose a panel of eight protein targets, which have no structural homology and a wide mass range (Fig 7C). We screened these eight targets with solution panning strategy and two additional plate panning for CD8α/β and CD28, thus ten panning campaigns in total. We consider clones showing spot phage ELISA signal > 0.3 and signal/noise ratio > 2 as positive hits. At least one binding hit was discovered for nine out of the ten panning campaigns, surpassing the success rate of the best DCP scaffolds reported previously. We also obtained the NGS data for these screening and the ranking of clones for their enrichment along the rounds of screening was analyzed and considered the top-ranking clones as potential hits. Based on their sequence diversity we selected 16 potential hits spanning five protein targets for peptide synthesis in their linear form. Seven of these are hits with positive phage ELISA signal and nine were selected based on NGS ranking without spot ELISA available. Subsequently, we conducted in vitro folding experiments on these peptides in various buffers. We observed a strong propensity for spontaneous folding regardless of the buffer condition. All HCP hits tested successfully folded into three-disulfide-containing product within two days in a universal buffer system (PBS, pH 7.4, 50% DMSO) without the need for a redox pair, as shown in Fig 8A. The binding of these folded peptides to their respective target proteins was confirmed using SPR (Table 4 and S1 Data) and binding kinetics are exemplified by the high-affinity peptide 5ji4-CRD7-2 (see Fig 8B). Among seven selected ELISA-positive hits, all of them were successfully synthesized and in vitro folded with three disulfide bonds and five were proven to be validated binders by SPR (Table 4). Nine peptides selected from the NGS ranking were synthesized and folded with the expected number of disulfide bonds and five of them bound to their target with affinities in the μM range as determined by SPR (Table 4). In general, binding affinities for these SPR-validated initial hits are weak, with Kd values in the micromolar range and fast on- and off-rates. There are two exceptions with binding affinities in the nanomolar range.
The 5ji4 libraries were constructed following the Kunkel mutagenesis method and the solution panning protocol was followed as previously described. After four to five rounds of binding selection, while eluted pool was subjected to NGS analysis, individual phage clones were also picked and analyzed with phage spot ELISA. Positive clones were subjected to SANGER sequencing.

Compound	S/N	ELISA	ELISA signal (phage spot ELISA of the clone, positive hit: signal > 0.3 and signal/noise > 2)	ELISA s/n (phage spot ELISA signal/noise ratio)
PCECYFSNTMVGHSSSEECERLCRNLGVTNCRVHCG [VEGF clone 5, phage clone, 5JI4 library, VEGF panning]	40.6	4.23	–	–
PCECQFYGTMVGWSSSEECERLCRKLGVTNCRVHCG [VEGF clone 20, phage clone, 5JI4 library, VEGF panning]	37.3956	3.403	–	–
PCECVVLDTVVGKASSEECERLCRKLGVTNCRVHCG [VEGF clone 17, phage clone, 5JI4 library, VEGF panning]	37.5957	3.534	–	–
PCECFMMEVKVGTGSSEECERLCRKLGVTNCRVHCG [VEGF clone 14, phage clone, 5JI4 library, VEGF panning]	42.5632	3.703	–	–
CC(C)C[C@@H]1NC(=O)[C@H](CCCNC(=N)N)NC(=O)[C@H](CCCCN)NC(=O)[C@@H]2CSSC[C@H](NC(=O)[C@H](CCC(=O)O)NC(=O)[C@@H](NC(=O)[C@@H]3CCCN3)CSSC[C@@H](C(=O)NCC(=O)O)NC(=O)[C@H](Cc3c[nH]cn3)NC(=O)[C@H](C(C)C)NC(=O)[C@H](CCCNC(=N)N)NC(=O)[C@@H]3CSSC[C@H](NC1=O)C(=O)N[C@@H](Cc1c[nH]c4ccccc14)C(=O)NCC(=O)N[C@@H](Cc1ccccc1)C(=O)NCC(=O)N[C@@H](CCC(N)=O)C(=O)N[C@@H](CO)C(=O)N[C@@H](CC(=O)O)C(=O)N3)C(=O)N[C@@H](CC(=O)O)C(=O)N[C@@H](C(C)C)C(=O)N[C@@H](CC(N)=O)C(=O)N[C@@H](C(C)C)C(=O)N[C@@H](CCC(=O)O)C(=O)N[C@@H]([C@@H](C)O)C(=O)N[C@@H](Cc1ccc(O)cc1)C(=O)N[C@@H]([C@@H](C)O)C(=O)N[C@@H](C(C)C)C(=O)N[C@@H](CO)C(=O)N[C@@H](CO)C(=O)N[C@@H](CO)C(=O)N[C@@H](CCC(=O)O)C(=O)N[C@@H](CCC(=O)O)C(=O)N2 [5ji4-VEGF-3] (H-PCECDVNVETYTVSSSEECKRLCWGFGQSDCRVHCG-OH; disulfide 2-35, 4-19, 23-31)	–	–	3.07	32.18
PCECYFQXVKVGESSSEECERLCRKLGVTNCRVHCG [VEGF clone 6, phage clone, 5JI4 library, VEGF panning]	32.5	4.23	–	–
PCECFMYDILVGLASSEECERLCRKLGVTNCRVHCG [VEGF clone 2, phage clone, 5JI4 library, VEGF panning]	30.9	6.00	–	–
PCECYMSNVNVGESSSEECERLCRKLGVTNCRVHCG [VEGF clone 22, phage clone, 5JI4 library, VEGF panning]	29.6607	3.322	–	–
PCECWMYHTNVGHGSSEECERLCRKLGVTNCRVHCG [VEGF clone 21, phage clone, 5JI4 library, VEGF panning]	29.9279	3.322	–	–
PCECPRWWSHDGGYSSEECERLCRKLGVTNCRVHCG [VEGF clone 11, phage clone, 5JI4 library, VEGF panning]	38.9	3.89	–	–
PCECITKWSDWGFSSSEECERLCRKLGVTNCRVHCG [VEGF clone 24, phage clone, 5JI4 library, VEGF panning]	9.024	0.767	–	–
PCECFMYGVYVGHSSSEACERLCRKLGVTNCRVHCG [VEGF clone 9, phage clone, 5JI4 library, VEGF panning]	39.95	3.995	–	–
PCECLMYGHHVGSASSEECERLCRKLGVTNCRVHCG [VEGF clone 19, phage clone, 5JI4 library, VEGF panning]	36.6559	3.409	–	–
PCECIXXDSFVGKSSSEECERLCRKLGVTNCRVHCG [VEGF clone 25, phage clone, 5JI4 library, VEGF panning]	3.092	0.269	–	–
PCECDVNVETYTVSSSEECKRLCWGFGQSDCRVHCG [VEGF clone 26, phage clone, 5JI4 library, VEGF panning]	30.2373	3.568	–	–
